# Measured values reported in patent US12570642B2, “GLP-IR modulating compounds” (Gilead Sciences, Inc., priority 2021, dated 2026).
# Biological target: GLP-1R (Homo sapiens, UniProt P43220)
# Experiment: GLP-1R Activation - cAMP Assay
# Assay type: cell-based
# Conditions: cAMP increase in CHO cells stably expressing GLP-1R; each compound run on one of the two cAMP assays (Assay 1 or Assay 2, not specified)
# Outline: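 CHO cells stably expressing GLP-1R, plated at 1,000 cells/well overnight, then equilibrated 1 h in HBSS with 20 mM Hepes and 0.1% BSA. Agonist added as 10-point dose response for 30 min at 37 °C. cAMP measured by HTRF (Cisbio Gs Dynamic kit); EC50 from sigmoidal fit.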
# Sequence of GLP-1R (P43220 24-463): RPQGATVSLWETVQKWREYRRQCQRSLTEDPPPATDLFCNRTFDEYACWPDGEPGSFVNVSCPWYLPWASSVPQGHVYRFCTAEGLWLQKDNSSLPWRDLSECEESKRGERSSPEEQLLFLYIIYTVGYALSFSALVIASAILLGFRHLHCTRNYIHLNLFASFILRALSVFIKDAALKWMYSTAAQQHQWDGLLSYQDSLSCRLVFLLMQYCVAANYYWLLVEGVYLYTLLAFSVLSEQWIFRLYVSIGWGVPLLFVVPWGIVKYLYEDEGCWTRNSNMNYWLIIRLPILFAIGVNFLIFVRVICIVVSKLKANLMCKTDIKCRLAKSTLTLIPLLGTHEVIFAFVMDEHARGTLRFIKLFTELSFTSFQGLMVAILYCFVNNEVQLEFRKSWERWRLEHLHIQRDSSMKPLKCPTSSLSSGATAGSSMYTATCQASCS
row,Structure (SMILES),EC50 [nM]
1,"CC1(C)COC[C@H]1n1c(Cc2cc(F)c(-c3ccc(F)c(OCc4ccc(C#N)cc4)n3)cc2F)nc2c(F)cc(C(=O)O)cc21 [Example 325, (S)-2-(4-(6-((4-cyanobenzyl)oxy)-5-fluoropyridin-2-yl)-2,5-difluorobenzyl)-1-(4,4-dimethyltetrahydrofuran-3-yl)-4-fluoro-1H-benzo[d]imidazole-6-carboxylic acid]",0.155
2,"CC1(C)COC[C@H]1n1c(Cn2cc(Cl)c(-c3cccc(OCc4ccc(C#N)cc4F)n3)cc2=O)nc2c(F)cc(C(=O)O)cc21 [Example 326, (S)-2-((5′-chloro-6-((4-cyano-2-fluorobenzyl)oxy)-2′-oxo-[2,4′-bipyridin]-1′(2′H)-yl)methyl)-1-(4,4-dimethyltetrahydrofuran-3-yl)-4-fluoro-1H-benzo[d]imidazole-6-carboxylic acid]",0.236
3,"CC1(C)COC[C@H]1n1c(Cn2cc(Cl)c(-c3cccc(OCc4ccc(Cl)cc4F)n3)cc2=O)nc2c(F)cc(C(=O)O)cc21 [Example 327, (S)-2-((5′-chloro-6-((4-chloro-2-fluorobenzyl)oxy)-2′-oxo-[2,4′-bipyridin]-1′(2′H)-yl)methyl)-1-(4,4-dimethyltetrahydrofuran-3-yl)-4-fluoro-1H-benzo[d]imidazole-6-carboxylic acid]",0.266
4,"CC1(C)COC[C@H]1n1c(Cn2cc(F)c(-c3ccc(F)c(OCc4ccc(C#N)cc4F)n3)cc2=O)nc2ccc(C(=O)O)cc21 [Example 328, (S)-2-((6-((4-cyano-2-fluorobenzyl)oxy)-5,5′-difluoro-2′-oxo-[2,4′-bipyridin]-1′(2′H)-yl)methyl)-1-(4,4-dimethyltetrahydrofuran-3-yl)-1H-benzo[d]imidazole-6-carboxylic acid]",0.555
5,"CC1(C)COC[C@H]1n1c(Cc2ccc(-c3cccc(OCc4ccc(Cl)cc4F)n3)cc2F)nc2c(F)cc(C(=O)O)cc21 [Example 329, (S)-2-(4-(6-((4-chloro-2-fluorobenzyl)oxy)pyridin-2-yl)-2-fluorobenzyl)-1-(4,4-dimethyltetrahydrofuran-3-yl)-4-fluoro-1H-benzo[d]imidazole-6-carboxylic acid]",0.062
6,CC1(C)COC[C@H]1n1c(Cc2ccc(-c3ccc(F)c(OCc4ccc(C#N)cc4F)n3)cc2F)nc2ccc(C(=O)O)cc21 [Example 330],0.011
7,"CC1(C)COC[C@H]1n1c(Cc2ccc(-c3cccc(OCc4ccc(Cl)cc4F)n3)cc2F)nc2ccc(C(=O)O)cc21 [Example 331, (S)-2-(4-(6-((4-chloro-2-fluorobenzyl)oxy)pyridin-2-yl)-2-fluorobenzyl)-1-(4,4-dimethyltetrahydrofuran-3-yl)-1H-benzo[d]imidazole-6-carboxylic acid]",0.218
8,"CC1(C)COC[C@H]1n1c(Cc2ccc(-c3ccc(F)c(OCc4ccc(Cl)cc4F)n3)cc2F)nc2ccc(C(=O)O)cc21 [Example 332, (S)-2-(4-(6-((4-chloro-2-fluorobenzyl)oxy)-5-fluoropyridin-2-yl)-2-fluorobenzyl)-1-(4,4-dimethyltetrahydrofuran-3-yl)-1H-benzo[d]imidazole-6-carboxylic acid]",0.159
9,"Cc1cc(Cc2nc3c(F)cc(C(=O)O)cc3n2[C@@H]2COCC2(C)C)c(Cl)cc1-c1ccc(F)c(OCc2ccc(Cl)cc2F)n1 [Example 334, (S)-2-(2-chloro-4-(6-((4-chloro-2-fluorobenzyl)oxy)-5-fluoropyridin-2-yl)-5-methylbenzyl)-1-(4,4-dimethyltetrahydrofuran-3-yl)-4-fluoro-1H-benzo[d]imidazole-6-carboxylic acid]",0.067
10,"CC1(C)COC[C@H]1n1c(Cc2c(F)cc(-c3ccc(F)c(OCc4ccc(Cl)cc4F)n3)c(F)c2F)nc2ccc(C(=O)O)cc21 [Example 335, (S)-2-(4-(6-((4-chloro-2-fluorobenzyl)oxy)-5-fluoropyridin-2-yl)-2,3,6-trifluorobenzyl)-1-(4,4-dimethyltetrahydrofuran-3-yl)-1H-benzo[d]imidazole-6-carboxylic acid]",0.306
11,"CC1(C)COC[C@H]1n1c(Cc2c(F)cc(-c3ccc(F)c(OCc4ccc(Cl)cc4F)n3)c(F)c2F)nc2c(F)cc(C(=O)O)cc21 [Example 336, (S)-2-(4-(6-((4-chloro-2-fluorobenzyl)oxy)-5-fluoropyridin-2-yl)-2,3,6-trifluorobenzyl)-1-(4,4-dimethyltetrahydrofuran-3-yl)-4-fluoro-1H-benzo[d]imidazole-6-carboxylic acid]",0.016
12,"CC1(C)COC[C@H]1n1c(Cc2ccc(-c3ccc(F)c(OCc4ccc(C#N)cc4F)n3)cc2F)nc2c(F)cc(C(=O)O)cc21 [Example 337, (S)-2-(4-(6-((4-cyano-2-fluorobenzyl)oxy)-5-fluoropyridin-2-yl)-2-fluorobenzyl)-1-(4,4-dimethyltetrahydrofuran-3-yl)-4-fluoro-1H-benzo[d]imidazole-6-carboxylic acid]",0.025
13,"COc1cc(Cl)ncc1COc1nc(-c2cc(F)c(Cc3nc4c(F)cc(C(=O)O)cc4n3[C@@H]3COCC3(C)C)c(F)c2F)ccc1F [Example 339, (S)-2-(4-(6-((6-chloro-4-methoxypyridin-3-yl)methoxy)-5-fluoropyridin-2-yl)-2,3,6-trifluorobenzyl)-1-(4,4-dimethyltetrahydrofuran-3-yl)-4-fluoro-1H-benzo[d]imidazole-6-carboxylic acid]",0.013
14,"COc1cc(Cl)ncc1COc1nc(-c2cc(F)c(Cc3nc4c(F)cc(C(=O)O)cc4n3[C@@H]3COCC3(C)C)cc2F)ccc1F [Example 340, (S)-2-(4-(6-((6-chloro-4-methoxypyridin-3-yl)methoxy)-5-fluoropyridin-2-yl)-2,5-difluorobenzyl)-1-(4,4-dimethyltetrahydrofuran-3-yl)-4-fluoro-1H-benzo[d]imidazole-6-carboxylic acid]",0.005
15,"COc1cc(Cl)ncc1COc1nc(-c2cc(F)c(Cc3nc4ccc(C(=O)O)cc4n3[C@@H]3COCC3(C)C)c(F)c2F)ccc1F [Example 341, (S)-2-(4-(6-((6-chloro-4-methoxypyridin-3-yl)methoxy)-5-fluoropyridin-2-yl)-2,3,6-trifluorobenzyl)-1-(4,4-dimethyltetrahydrofuran-3-yl)-1H-benzo[d]imidazole-6-carboxylic acid]",0.024
16,"COc1cc(Cl)ncc1COc1nc(-c2cc(F)c(Cc3nc4ccc(C(=O)O)cc4n3[C@@H]3COCC3(C)C)cc2F)ccc1F [Example 342, (S)-2-(4-(6-((6-chloro-4-methoxypyridin-3-yl)methoxy)-5-fluoropyridin-2-yl)-2,5-difluorobenzyl)-1-(4,4-dimethyltetrahydrofuran-3-yl)-1H-benzo[d]imidazole-6-carboxylic acid]",0.012
17,"CC1(C)COCC1n1c(Cc2cc(F)c(-c3ccnc(OCc4ccc(Cl)cc4F)n3)cc2Cl)nc2c(F)cc(C(=O)O)cc21 (stereo not drawn) [Example 343, 2-(2-chloro-4-(2-((4-chloro-2-fluorobenzyl)oxy)pyrimidin-4-yl)-5-fluorobenzyl)-1-(4,4-dimethyltetrahydrofuran-3-yl)-4-fluoro-1H-benzo[d]imidazole-6-carboxylic acid]",0.113
18,"CC1(C)COCC1n1c(Cc2cc(F)c(-c3ccnc(OCc4ccc(C(F)F)cc4F)n3)cc2Cl)nc2c(F)cc(C(=O)O)cc21 (stereo not drawn) [Example 344, 2-(2-chloro-4-(2-((4-(difluoromethyl)-2-fluorobenzyl)oxy)pyrimidin-4-yl)-5-fluorobenzyl)-1-(4,4-dimethyltetrahydrofuran-3-yl)-4-fluoro-1H-benzo[d]imidazole-6-carboxylic acid]",0.147
19,"CC1(C)COCC1n1c(Cc2cc(F)c(-c3ccc(F)c(OCc4ccc(C#N)cc4F)n3)cc2Cl)nc2ccc(C(=O)O)cc21 (stereo not drawn) [Example 345, 2-(2-chloro-4-(6-((4-cyano-2-fluorobenzyl)oxy)-5-fluoropyridin-2-yl)-5-fluorobenzyl)-1-(4,4-dimethyltetrahydrofuran-3-yl)-1H-benzo[d]imidazole-6-carboxylic acid]",0.197
20,"CC1(C)COCC1n1c(Cc2cc(F)c(-c3ccc(F)c(OCc4ccc(C#N)cc4F)n3)cc2Cl)nc2c(F)cc(C(=O)O)cc21 (stereo not drawn) [Example 346, 2-(2-chloro-4-(6-((4-cyano-2-fluorobenzyl)oxy)-5-fluoropyridin-2-yl)-5-fluorobenzyl)-1-(4,4-dimethyltetrahydrofuran-3-yl)-4-fluoro-1H-benzo[d]imidazole-6-carboxylic acid]",0.075
21,"CC1(C)COCC1n1c(Cc2cc(F)c(-c3ccc(F)c(OCc4ccc(Cl)cc4F)n3)cc2F)nc2c(F)cc(C(=O)O)cc21 (stereo not drawn) [Example 347, 2-(4-(6-((4-chloro-2-fluorobenzyl)oxy)-5-fluoropyridin-2-yl)-2,5-difluorobenzyl)-1-(4,4-dimethyltetrahydrofuran-3-yl)-4-fluoro-1H-benzo[d]imidazole-6-carboxylic acid]",0.132
22,"CC1(C)COCC1n1c(Cc2cc(F)c(-c3nccc(OCc4ccc(Cl)cc4F)n3)cc2F)nc2c(F)cc(C(=O)O)cc21 (stereo not drawn) [Example 348, 2-(4-(4-((4-chloro-2-fluorobenzyl)oxy)pyrimidin-2-yl)-2,5-difluorobenzyl)-1-(4,4-dimethyltetrahydrofuran-3-yl)-4-fluoro-1H-benzo[d]imidazole-6-carboxylic acid]",0.55
23,"COC(=O)N1Cc2ccc(COc3cccc(-c4cc(F)c(Cc5nc6c(F)cc(C(=O)O)cc6n5C[C@@H]5CCO5)cc4F)n3)cc2C1 [Example 349, 2-[[2,5-difluoro-4-[6-[(2-methoxycarbonylisoindolin-5-yl)methoxy]-2-pyridyl]phenyl]methyl]-7-fluoro-3-[[(2S)-oxetan-2-yl]methyl]benzimidazole-5-carboxylic acid]",0.042
24,"COCCn1c(Cc2cc(F)c(-c3cccc(OCc4ccc(-n5ccnn5)nc4)n3)cc2Cl)nc2c(F)cc(C(=O)O)cc21 [Example 350, 2-(4-(6-((6-(1H-1,2,3-triazol-1-yl)pyridin-3-yl)methoxy)pyridin-2-yl)-2-chloro-5-fluorobenzyl)-4-fluoro-1-(2-methoxyethyl)-1H-benzo[d]imidazole-6-carboxylic acid]",0.171
